What was measured:
[1] = Encapsulation efficiency of LNP (Quant-it Ribogreen RNA quantitative assay kit); type: physicochemical
[2] = Particle size and PDI of LNP preparation by dynamic light scattering (Malvern Zetasizer Ultra); type: physicochemical
[3] = tested on: female Balb/C mice; assay: In-vivo bioluminescence (overall luminescence intensity, AUC) after tail vein injection of Fluc mRNA LNP; conditions: 5 μg/mouse, liver site, Table 3 LNP
[4] = tested on: female Balb/C mice; assay: In-vivo bioluminescence at lower limb administration site after intramuscular injection of Fluc mRNA LNP; conditions: 5 μg/mouse, Table 3 LNP
Method: In this example, LQ104-1 to LQ104-8 (encapsulating Fluc mRNA) from Example 1 were injected via tail vein into female Balb/C mice (Viton Lihua) aged 6 to 8 weeks at a dose of 5 μg/mouse (n=3, i.e. 3 mice were used for injection and testing in each group, and the data results presented were the mean measurements of each group). […] potassium salt was intraperitoneally injected at specific time points after administration (in this example, 6th hour, 24th hour, and 48th hour), and then the luminescence was detected by an IVIS Spectrum small animal living imager instrument (manufacturer: PerkinElmer). The overall luminescence intensity of live expression sites (such as the liver) in mice was counted. […] The overall luminescence intensity was the luminescence intensity data, measured by bioluminescence imaging, of the luminescent site obtained 6 to 15 minutes (min) after intraperitoneal injection of […] potassium salt. The overall luminescence intensity of the in vivo expression area was counted by using Living Image software (manufacturer: PerkinElmer), furthermore, an area under the curve (AUC, unit: p/s*hour) was calculated by using GraphPad software, and the AUC in each example of the present application is the area under the curve of a line connecting measurement points of the overall luminescence intensity from the 4th or 6th hour after drug administration (using the experimental method of the present application, peak values are the same from 3-6 hours after drug administration) to the 48th hour after drug administration. Test results were shown in FIG. 3 and FIG. 4A, as well as Table 2.
Furthermore, referring to the mouse in-vivo experimental method of Example 3, each group of LNP preparations in this example was injected into female Balb/C mice aged 6 to 8 weeks through tail vein injection or intramuscular injection of the lower limbs at a dose of 5 μg/mouse. The overall luminescence intensity of the liver or lower limb administration site was counted, and the test results were shown in FIG. 5A to FIG. 5D and Table 4A to Table 4D). […]

[5] = Surface potential of LNP preparation (Malvern Zetasizer Ultra); type: physicochemical; conditions: Table 3; LNP 40:11:47.4:1.6, N/P 8:1
Method: (§1) In this example, the ionizable lipids prepared from Preparation Example 3 to Preparation Example 17 were selected. Following the same method as in Example 1, an LNP preparation (encapsulating Fluc mRNA) was prepared according to a molar ratio and a nitrogen-to-phosphorus ratio shown in Table 3. Malvern Zetasizer Ultra was used to measure a particle size, a PDI, and a surface potential of each LNP preparation; a Quant-it Ribogreen RNA quantification assay kit (manufacturer: ThermoFisher Scientific, item number: R11490) was used to measure encapsulation efficiency of LNP; and a dye binding test of 6-(p-Toluidino)-2-naphthalene sulfonic acid sodium salt (TNS, purchased from Nanjing Xize Pharmaceutical Technology Co., Ltd., item number: XZ0743) was used to measure pKa of the LNP.

[6] = pKa of LNP by TNS dye binding test; type: physicochemical; conditions: Table 3, pKa of the LNP, 40:11:47.4:1.6, N/P 8:1
Method: as §1

[7] = tested on: female Balb/C mice; assay: Total Spike antibody titer in serum (ELISA) after intramuscular injection of Spike mRNA LNP; type: in vivo; conditions: 2 μg/mouse, second injection on 21st day, serum 7th day after second administration, n=8, compared with PBS
[8] = Table 3, LNP 40:11:47.4:1.6, N/P 8:1
[9] = Table 3, LNP lipid:DSPC:cholesterol:DMG-PEG = 40:11:47.4:1.6, nitrogen-to-phosphorus ratio 8:1, Fluc mRNA
[10] = Table 1, Example 1 LNP preparations

Encapsulation efficiency (%) [1, 8] [%]	PDI [2, 8]	Particle size (nm) [2, 9] [nm]	Surface potential (mV) [5] [mV]	pKa [6]	Structure (SMILES)	AUC (p/s*hour) ([3]; Table 4A (FIG. 5A))	AUC (p/s*hour) ([4]; Table 4C (FIG. 5C))	AUC (p/s*hour) ([3]; Table 4B (FIG. 5B))	AUC (p/s*hour) ([4]; Table 4D (FIG. 5D))	Encapsulation efficiency (%) [1, 10] [%]	PDI [2, 10]	Particle size (nm) ([2]; Table 1, Example 1 LNP preparations (ionizable lipid:DSPC:cholesterol:DMG-PEG))	total Spike protein antibody titer [7]
97.4	0.058	85.57	−2.788	7.15	CCCCCCCCC(CCCCCC)OC(=O)CCCCCCN(CCO)CCN(CCO)CCCCCCC(=O)OC(CCCCCC)CCCCCCCC (stereo not drawn) [LQ104-E17b-3]	–	–	9.91E+10	3.82E+09	–	–	–	–
98.0	0.061	72.30	−3.406	6.469	CCCCCCCCCC(CCCCCCC)OC(=O)CCCCCN(CCO)CCN(CCO)CCCCCC(=O)OC(CCCCCCC)CCCCCCCCC (stereo not drawn) [LQ104-E17b-4]	–	–	7.68E+10	2.86E+09	–	–	–	–
97.4	0.081	80.10	−2.013	7.033	CCCCCCCCC(CCCCCC)C(=O)OCCCCCCCN(CCO)CCN(CCO)CCCCCCCOC(=O)C(CCCCCC)CCCCCCCC (stereo not drawn) [LQ104-E18b-2R]	–	–	1.01E+10	1.73E+09	–	–	–	–
97.5	0.084	84.46	−1.109	7.262	CCCCCCCCC(CCCCCC)OC(=O)CCCCCCCN(CCO)CCN(CCO)CCCCCCCC(=O)OC(CCCCCC)CCCCCCCC (stereo not drawn) [LQ104-E18b-2]	–	–	5.32E+10	3.06E+09	–	–	–	–
97.4	0.063	90.39	−2.466	7.039	CCCCCCCCCC(CCCCCCC)OC(=O)CCCCCCN(CCO)CCN(CCO)CCCCCCC(=O)OC(CCCCCCC)CCCCCCCCC (stereo not drawn) [LQ104-E18b-3]	–	–	1.06E+11	4.80E+09	–	–	–	–

Second part, the molecule before the results:

Structure (SMILES)	Encapsulation efficiency (%) [1, 8] [%]	PDI [2, 8]	Particle size (nm) [2, 9] [nm]	Surface potential (mV) [5] [mV]	pKa [6]	AUC (p/s*hour) ([3]; Table 4A (FIG. 5A))	AUC (p/s*hour) ([4]; Table 4C (FIG. 5C))	AUC (p/s*hour) ([3]; Table 4B (FIG. 5B))	AUC (p/s*hour) ([4]; Table 4D (FIG. 5D))	Encapsulation efficiency (%) [1, 10] [%]	PDI [2, 10]	Particle size (nm) ([2]; Table 1, Example 1 LNP preparations (ionizable lipid:DSPC:cholesterol:DMG-PEG))	total Spike protein antibody titer [7]
CCCCCCCC(CCCCCCC)OC(=O)CCCCCN(CCO)CCN(CCO)CCCCCC(=O)OC(CCCCCCC)CCCCCCC [LQ104-E15b-1]	98.1	0.059	71.08	−4.22	6.754	2.26E+10	5.58E+09	–	–	–	–	–	–
CCCCCCCCC(CCCCCCCC)OC(=O)CCCCN(CCO)CCN(CCO)CCCCC(=O)OC(CCCCCCCC)CCCCCCCC [LQ104-E15b-2]	96.8	0.059	56.47	−6.81	6.470	–	–	–	–	–	–	–	–
CCCCCCCCCC(CCCCCCCCC)OC(=O)CCCN(CCO)CCN(CCO)CCCC(=O)OC(CCCCCCCCC)CCCCCCCCC [LQ104-E15b-3]	96.0	0.083	52.80	−10.70	6.161	–	–	–	–	–	–	–	–
CCCCCCCC(CCCCCCC)OC(=O)CCCCCCN(CCO)CCN(CCO)CCCCCCC(=O)OC(CCCCCCC)CCCCCCC [LQ104-E16b-1]	97.2	0.044	84.84	−3.35	7.109	2.74E+10	2.30E+09	–	–	–	–	–	–
CCCCCCCCC(CCCCCCCC)OC(=O)CCCCCN(CCO)CCN(CCO)CCCCCC(=O)OC(CCCCCCCC)CCCCCCCC [LQ104-E16b-2]	97.9	0.098	75.44	−4.38	6.761	8.98E+10	3.50E+09	–	–	–	–	–	–
CCCCCCCCC(CCCCCC)C(=O)OCCCCCN(CCO)CCN(CCO)CCCCCOC(=O)C(CCCCCC)CCCCCCCC (stereo not drawn) [LQ104-E16b-3R]	96.8	0.088	89.68	−4.59	6.802	1.47E+10	2.19E+09	–	–	–	–	–	–
CCCCCCCCC(CCCCCC)OC(=O)CCCCCN(CCO)CCN(CCO)CCCCCC(=O)OC(CCCCCC)CCCCCCCC (stereo not drawn) [LQ104-E16b-3]	97.6	0.091	78.35	−5.94	6.773	1.95E+10	2.10E+09	–	–	–	–	–	–
CCCCCCCC(CCCCCCC)OC(=O)CCCCCCCN(CCO)CCN(CCO)CCCCCCCC(=O)OC(CCCCCCC)CCCCCCC [LQ104-E17b-1]	96.9	0.082	85.67	−1.066	7.19	–	–	3.16E+10	2.66E+09	–	–	–	–
CCCCCCCCC(CCCCCCCC)OC(=O)CCCCCCN(CCO)CCN(CCO)CCCCCCC(=O)OC(CCCCCCCC)CCCCCCCC [LQ104-E17b-2]	97.4	0.045	74.14	−1.852	6.852	–	–	5.58E+10	2.49E+09	–	–	–	–
CCCCCCCCC(CCCCCC)C(=O)OCCCCCCN(CCO)CCN(CCO)CCCCCCOC(=O)C(CCCCCC)CCCCCCCC (stereo not drawn) [LQ104-E17b-3R]	97.4	0.087	77.34	−2.203	7.153	–	–	6.33E+09	1.47E+09	–	–	–	–
CCCCCCCCCCCOC(=O)CCCCCN(CCCCCCCC(=O)OC(CCCCCCCC)CCCCCCCC)CCOC(=O)CC(=O)OCCN(CCCCCCCC(=O)OC(CCCCCCCC)CCCCCCCC)CCCCCC(=O)OCCCCCCCCCCC [LQ107]	–	–	–	–	–	–	–	–	–	83.7	0.025	83.56	did not increase

Reference: US20250353809A1, “NITROGEN-CONTAINING CHAIN COMPOUND, PREPARATION METHOD, COMPOSITION CONTAINING SAID COMPOUND, AND USE THEREOF” (SHANGHAI RNACURE BIOPHARMA CO., LTD., priority 2022, published 2025)
